Source: PMC2760071 (Bioorganic & medicinal chemistry letters, 2009)
Blank lines part the entries; values can stand above or below the molecule they belong to.

Experiments:
[1] = target: T1, ovine COX-1 (Ovis aries, UniProt P05979); conditions: COX-1, 50 μM arachidonic acid (saturating)
T1 sequence (P05979 25-600): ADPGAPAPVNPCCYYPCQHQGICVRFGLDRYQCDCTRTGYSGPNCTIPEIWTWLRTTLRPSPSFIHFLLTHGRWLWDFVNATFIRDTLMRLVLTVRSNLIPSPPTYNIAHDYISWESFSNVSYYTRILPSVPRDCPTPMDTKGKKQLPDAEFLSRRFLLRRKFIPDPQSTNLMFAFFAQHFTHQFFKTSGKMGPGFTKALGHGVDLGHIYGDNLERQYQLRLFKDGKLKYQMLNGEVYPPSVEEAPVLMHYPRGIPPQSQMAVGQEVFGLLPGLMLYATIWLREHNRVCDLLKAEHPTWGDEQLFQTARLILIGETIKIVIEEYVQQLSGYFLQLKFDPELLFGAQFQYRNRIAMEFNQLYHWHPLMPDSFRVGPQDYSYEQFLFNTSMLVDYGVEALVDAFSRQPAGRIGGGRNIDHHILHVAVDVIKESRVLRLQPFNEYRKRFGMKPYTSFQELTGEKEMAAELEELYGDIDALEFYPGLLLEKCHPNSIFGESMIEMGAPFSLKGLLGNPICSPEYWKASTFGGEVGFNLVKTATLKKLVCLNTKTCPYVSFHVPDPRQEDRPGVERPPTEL

[2] = target: T2, murine COX-2 (Mus musculus, UniProt Q05769); conditions: COX-2, 50 μM arachidonic acid (saturating)
T2 sequence (Q05769 18-604): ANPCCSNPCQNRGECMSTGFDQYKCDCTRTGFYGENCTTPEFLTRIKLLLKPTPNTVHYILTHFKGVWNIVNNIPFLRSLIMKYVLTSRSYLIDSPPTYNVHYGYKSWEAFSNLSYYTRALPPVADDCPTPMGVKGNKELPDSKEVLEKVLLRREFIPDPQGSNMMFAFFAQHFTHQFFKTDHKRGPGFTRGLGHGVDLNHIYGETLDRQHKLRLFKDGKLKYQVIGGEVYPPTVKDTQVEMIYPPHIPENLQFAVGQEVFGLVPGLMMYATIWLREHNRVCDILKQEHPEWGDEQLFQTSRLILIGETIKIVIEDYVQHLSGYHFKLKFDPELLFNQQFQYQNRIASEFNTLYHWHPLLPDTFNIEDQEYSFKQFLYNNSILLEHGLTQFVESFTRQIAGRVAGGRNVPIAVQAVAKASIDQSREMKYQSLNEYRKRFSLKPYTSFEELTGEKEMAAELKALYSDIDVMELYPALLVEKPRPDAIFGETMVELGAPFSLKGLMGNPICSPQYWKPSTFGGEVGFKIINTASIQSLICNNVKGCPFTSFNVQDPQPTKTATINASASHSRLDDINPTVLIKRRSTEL

[3] = Photoisomerization / light stability of E and Z isomers
[4] = target: T2, murine COX-2; test: Competitive COX inhibition assay, reduced arachidonate; type: biochemical; conditions: COX-2, 5 μM arachidonate, at the concentration ranges tested
[5] = tested on: oCOX-1; conditions: wild-type oCOX-1; cited from earlier work
[6] = target: T1, ovine COX-1; conditions: COX-1, 5 μM vs 50 μM arachidonate, data not shown

- time-dependent inhibition (in words) [1]: no time-dependent inhibition
- time-dependent inhibition (in words) [2]: no time-dependent inhibition
- percentage conversion to the Z-isomer ([3]; 370 nm, 24 hours, high-pressure mercury lamp): 1-2%
- competitive inhibition (in words) [4]: no inhibition
Compound: CSc1ccc(/C=C2\C=C(CC(=O)O)c3cc(F)ccc32)cc1

- behaviour on exposure to natural light ([3]; natural light, during HPLC purification): photoisomerized to the E-isomer
Compound: CSc1ccc(/C=C2/C=C(CC(=O)O)c3cc(F)ccc32)cc1 [(Z)-2′-des-methyl sulindac sulfide]

- maximal extent (plateau) of inhibition [1]: around 75%
- photoisomerization (interconversion) ([3]; natural light and ultraviolet conditions): no interconversion was observed
- effect of reduced substrate concentration on ability to inhibit [6]: not significantly affected
Compound: CSc1ccc(/C=C2/C(C)=C(CC(=O)O)c3cc(F)ccc32)cc1 [sulindac sulfide, reference compound]
